From ChEMBL document CHEMBL5104099, “Recent applications of seven-membered rings in drug design” (Bioorg Med Chem, 2022)
In brackets after ≈: the same amount, converted by molar mass.

Legend:
[1] = molecular target: Human immunodeficiency virus type 1 protease (Human immunodeficiency virus 1, UniProt Q72874); experiment: Binding affinity to HIV-1 protease assessed as inhibition constant incubated for 60 mins by mass spectrometric analysis
[2] = Aqueous solubility of the compound; assay type: physicochemical
[3] = molecular target: Tyrosine-protein kinase BTK (Homo sapiens, UniProt Q06187); experiment: Inhibition of BTK in human whole blood; assay type: tissue-based
Chain of Tyrosine-protein kinase BTK (Q06187 whole entry): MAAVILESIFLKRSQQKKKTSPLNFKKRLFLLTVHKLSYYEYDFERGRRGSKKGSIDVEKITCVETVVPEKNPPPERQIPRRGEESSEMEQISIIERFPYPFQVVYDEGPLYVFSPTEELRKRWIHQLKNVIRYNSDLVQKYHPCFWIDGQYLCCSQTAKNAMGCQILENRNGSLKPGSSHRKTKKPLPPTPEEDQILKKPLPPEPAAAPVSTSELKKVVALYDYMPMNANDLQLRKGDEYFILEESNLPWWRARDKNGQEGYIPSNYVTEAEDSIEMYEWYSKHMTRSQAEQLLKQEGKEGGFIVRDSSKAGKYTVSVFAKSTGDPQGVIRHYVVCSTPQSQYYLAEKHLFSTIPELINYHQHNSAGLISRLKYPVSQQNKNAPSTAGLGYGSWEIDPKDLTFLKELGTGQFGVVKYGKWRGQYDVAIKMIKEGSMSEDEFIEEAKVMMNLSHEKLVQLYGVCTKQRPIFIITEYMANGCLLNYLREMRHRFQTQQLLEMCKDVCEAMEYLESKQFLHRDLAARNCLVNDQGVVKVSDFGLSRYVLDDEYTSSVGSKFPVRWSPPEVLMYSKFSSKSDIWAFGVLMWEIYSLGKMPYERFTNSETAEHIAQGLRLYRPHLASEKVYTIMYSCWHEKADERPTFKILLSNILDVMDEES

SMILES: CC(C)[C@H]1Cc2cc(F)ccc2S(=O)(=O)N(C[C@@H](O)[C@H](Cc2ccccc2)NC(=O)O[C@H]2CCOC2)C1
- Ki [1]: 0.36 nM

SMILES: Cn1c2c(cc(Nc3ccc(C(=O)N4CCOCC4)cn3)c1=O)-c1cccc(-n3ncc4cc(C(C)(C)C)cc(F)c4c3=O)c1C[C@H](O)C2
- solubility [2]: 1 µg/mL (≈ 1.5 µM)

SMILES: Cn1cc(-c2cccc(-n3ncc4cc(C(C)(C)C)cc(F)c4c3=O)c2CO)cc(Nc2ccc(C(=O)N3CCOCC3)cn2)c1=O
- IC50 [3]: 1 nM
